# Source: PMC8180025, “Antibacterial, antifungal and antioxidant activities of whole plant chemical constituents of Rumex abyssinicus” (BMC Complementary Medicine and Therapies, 2021)
# Where “and” joins values, the source holds several entries; their conditions need not be identical. Equal values may be shown once. Marks after values point to notes of the source that are not given here.
# Experiments:
# [1] = tested on: P. aeruginosa; assay: Checkerboard combination with antibiotic (FIC); format: cell-based, Pseudomonas aeruginosa; conditions: combined with ciprofloxacin
# [2] = tested on: MRSA03; assay: Checkerboard combination with antibiotic (FIC); format: cell-based, Staphylococcus aureus; conditions: combined with ciprofloxacin
# [3] = DPPH free radical scavenging assay; format: biochemical; conditions: mean ± SD, triplicate
# Procedure: The free radical scavenging activity of extracts and compounds was evaluated according to described methods. The EC50 (μg/ml), which is the amount of sample necessary to inhibit by 50% the absorbance of free radical DPPH was calculated. Vitamin C was used as a standard control. All the analyses were carried out in triplicate.
# [4] = tested on: MSSA01; assay: Checkerboard combination with antibiotic (FIC); format: cell-based, Staphylococcus aureus; conditions: combined with ciprofloxacin
# [5] = Gallic acid equivalent antioxidant capacity (GEAC) assay; format: biochemical; conditions: laccase/ABTS, 420 nm after 240 s; mean ± SD
# Procedure: The GEAC test was done as previously described with slight modifications. In a quartz cuvette, to 950 μL acetate buffer (pH =5.0, 100 mM), the following were added: 20 μL laccase (1 mM stock solution), 20 μL test sample, 10 μL ABTS (2,2′-azinobis(3-ethylbenzothiazoline-6-sulfonic acid) (74 mM stock solution). The purification of laccase from Sclerotinia sclerotiorum was done according to the protocol described. The sample concentrations in the assay mixture were 800, 400, 200, 100, 10 μg/mL for the extracts and 200, 100, 50, 25, 12.5, 6.25, 3.125, 1.56 μg/mL for the isolated compounds. The content of the generated ABTS^●+ radical was measured at 420 nm after 240 s reaction time and was converted to gallic acid equivalents by the use of a calibration curve (Pearson’s correlation coefficient: r = 0.997) constructed with 0, 4, 10, 14, 28, 56, 84 μM gallic acid standards rather than Trolox. Experiments were done in triplicate.
# [6] = tested on: Candida albicans ATCC10231; assay: Broth microdilution MIC/MMC; conditions: for MMC/MIC / MMC: C. albicans; for MMC: sub-culturing after broth microdilution; for MIC: Candida albicans, ATCC10231
# [7] = tested on: C. albicans; assay: Checkerboard combination with antibiotic (FIC); format: cell-based, Candida albicans; conditions: combined with fluconazole, checkerboard
# [8] = tested on: Shigella flexneri SDINT; assay: Broth microdilution MIC/MMC; conditions: for MMC/MIC / MMC: S. flexneri; for MMC: sub-culturing after broth microdilution; for MIC: Shigella flexneri
# [9] = tested on: Cryptococcus neoformans H99; assay: Broth microdilution MIC/MMC; conditions: for MMC/MIC / MMC: C. neoformans; for MMC: sub-culturing after broth microdilution; for MIC: Cryptococcus neoformans, H99
# [10] = tested on: methicillin sensitive S. aureus MSSA01; assay: Broth microdilution MIC/MMC; conditions: for MMC/MIC / MMC: MSSA01; for MMC: sub-culturing after broth microdilution; for MIC: Staphylococcus aureus
# [11] = tested on: Staphylococcus aureus ATCC25923; assay: Broth microdilution MIC/MMC; conditions: for MMC/MIC / MMC: S. aureus; for MMC: sub-culturing after broth microdilution; for MIC: Staphylococcus aureus, ATCC25923
# [12] = tested on: S. aureus; assay: Checkerboard combination with antibiotic (FIC); format: cell-based, Staphylococcus aureus; conditions: combined with ciprofloxacin
# [13] = tested on: bacterial and yeast species; assay: Checkerboard combination with antibiotics, whole panel; format: cell-based; conditions: overall statement over the microorganisms tested
# Procedure: (§1) The inoculum was initially prepared as described above. The test microorganisms were inoculated into a 96-well microtitre plates and a serial dilution of two antimicrobial agents: antibiotic and MeOH extract, compound 2 or 4. Each well consisted of unique combination of test sample and antibiotic concentrations. The plates were then incubated for 24 h at 37 °C. The analyses were performed in triplicates. And the antimicrobial agents interactions were evaluated by calculating the fractional inhibitory concentration (FIC) indices. The FIC is defined as follows: MIC of antibiotic tested in combination/MIC of antibiotic tested alone + MIC of extract/compound tested in combination/MIC of extract/compound tested alone. The FIC index is interpreted as FIC ≤ 0.5: synergistic effect, 0.5 < FIC ≤1: additive effect, 1 < FIC ≤2: indifferent effect, and FIC > 2.0: antagonistic effect.
# [14] = tested on: methicillin resistant S. aureus MRSA03; assay: Broth microdilution MIC/MMC; conditions: for MMC/MIC / MMC: MRSA03; for MMC: sub-culturing after broth microdilution; for MIC: Staphylococcus aureus
# [15] = tested on: Pseudomonas aeruginosa ATCC27853; assay: Broth microdilution MIC/MMC; conditions: for MMC/MIC / MMC: P. aeruginosa; for MMC: sub-culturing after broth microdilution; for MIC: Pseudomonas aeruginosa, ATCC27853
# [16] = tested on: C. neoformans; assay: Checkerboard combination with antibiotic (FIC); format: cell-based, Cryptococcus neoformans; conditions: combined with fluconazole, checkerboard
# [17] = tested on: S. flexneri; assay: Checkerboard combination with antibiotic (FIC); format: cell-based, Shigella flexneri; conditions: combined with ciprofloxacin
# Procedure: as §1
compound,measurement,setting,value
"Cc1cc(O)c2c(c1)C(=O)c1cc(O)cc(O)c1C2=O [Compound 4, Emodin]",Interpretation (of FIC index),[1],Synergistic (FIC ≤ 0.5: synergistic effect)
same,FICEx / FIC2 / FIC5 (MIC of extract/compound tested in combination/MIC of extract/compound tested alone),[1]; checkerboard,0.125
same,FIC (fractional inhibitory concentration index),[2],0.375
same,FICEx / FIC2 / FIC5 (MIC of extract/compound tested in combination/MIC of extract/compound tested alone),[2],0.125
same,FICA (MIC of antibiotic tested in combination/MIC of antibiotic tested alone),[2]; 24 h at 37 °C,0.25
same,DPPH free radical scavenging activity (EC50),[3],10.69 ± 0.51^f μg/mL
same,FIC (fractional inhibitory concentration index),[4],0.5
same,FICEx / FIC2 / FIC5 (MIC of extract/compound tested in combination/MIC of extract/compound tested alone),[4],0.25
same,FICA (MIC of antibiotic tested in combination/MIC of antibiotic tested alone),[4]; 24 h at 37 °C,0.25
same,Gallic acid equivalent antioxidant capacity (GEAC),[5],79.54 ± 1.26 μg/mL and 79.54 ± 1.26^e μg/mL
same,MMC/MIC,[6],1
same,MMC,[6],8 µg/mL
same,MIC,[6],8 µg/mL
same,FIC (fractional inhibitory concentration index),[7],0.75
same,FICEx / FIC2 / FIC5 (MIC of extract/compound tested in combination/MIC of extract/compound tested alone),[7],0.5
same,FICA (MIC of antibiotic tested in combination/MIC of antibiotic tested alone),[7]; 24 h at 37 °C,0.25
same,MMC/MIC,[8],2
same,MMC,[8],16 µg/mL
same,MIC,[8],8 µg/mL
same,MMC/MIC,[9],1
same,MMC,[9],8 µg/mL
same,MIC,[9],8 µg/mL
same,MMC/MIC,[10],1
same,MMC,[10],32 µg/mL
same,MIC,[10],32 µg/mL
same,MMC/MIC,[11],1
same,MMC,[11],8 µg/mL
same,MIC,[11],8 µg/mL
same,Interpretation (of FIC index),[12],Additive (0.5 < FIC ≤1: additive effect)
same,FIC (fractional inhibitory concentration index),[12]; checkerboard,0.625
same,FICEx / FIC2 / FIC5 (MIC of extract/compound tested in combination/MIC of extract/compound tested alone),[12]; checkerboard,0.125
same,FICA (MIC of antibiotic tested in combination/MIC of antibiotic tested alone),"[12]; checkerboard, 24 h at 37 °C",0.5
same,effect of the association with ciprofloxacin (bacteria) / fluconazole (yeasts),[13],synergistic
same,MMC/MIC,[14],1
same,MMC,[14],32 µg/mL
same,MIC,[14],32 µg/mL
same,MMC/MIC,[15],1
same,MMC,[15],16 µg/mL
same,MIC,[15],16 µg/mL
same,FIC (fractional inhibitory concentration index),[16],0.75
same,FICEx / FIC2 / FIC5 (MIC of extract/compound tested in combination/MIC of extract/compound tested alone),[16],0.5
same,FICA (MIC of antibiotic tested in combination/MIC of antibiotic tested alone),[16]; 24 h at 37 °C,0.25
same,Interpretation (of FIC index),[17],Synergistic (FIC ≤ 0.5: synergistic effect)
same,FIC (fractional inhibitory concentration index),[17]; checkerboard,0.31
same,FICEx / FIC2 / FIC5 (MIC of extract/compound tested in combination/MIC of extract/compound tested alone),[17]; checkerboard,0.25
same,FICA (MIC of antibiotic tested in combination/MIC of antibiotic tested alone),"[17]; checkerboard, 24 h at 37 °C",0.0625
"OC(Cn1cncn1)(Cn1cncn1)c1ccc(F)cc1F [fluconazole, reference compound]",MMC/MIC,[6],1
same,MMC,[6],1 µg/mL
same,MIC,[6],1 µg/mL
same,MMC/MIC,[9],1
same,MMC,[9],2 µg/mL
same,MIC,[9],2 µg/mL
"O=C1c2cc(O)cc(O)c2C(=O)c2c(O)cc(CO)cc21 [Compound 5, 6-hydroxyemodin (Citreorosein)]",DPPH free radical scavenging activity (EC50),[3],9.88 ± 0.62^f μg/mL
same,Gallic acid equivalent antioxidant capacity (GEAC),[5],81.09 ± 0.93 μg/mL and 81.09 ± 0.93^e μg/mL
same,MMC/MIC,[6],2
same,MMC,[6],32 µg/mL
same,MIC,[6],16 µg/mL
same,MMC/MIC,[8],1
same,MMC,[8],32 µg/mL
same,MIC,[8],32 µg/mL
same,MMC/MIC,[9],2
same,MMC,[9],32 µg/mL
same,MIC,[9],16 µg/mL
same,MMC/MIC,[10],2
same,MMC,[10],256 µg/mL
same,MIC,[10],128 µg/mL
same,MMC/MIC,[11],1
same,MMC,[11],32 µg/mL
same,MIC,[11],32 µg/mL
same,MMC/MIC,[14],2
same,MMC,[14],256 µg/mL
same,MIC,[14],128 µg/mL
same,MMC/MIC,[15],2
same,MMC,[15],64 µg/mL
same,MIC,[15],32 µg/mL
"O=C(O)c1cn(C2CC2)c2cc(N3CCNCC3)c(F)cc2c1=O [ciprofloxacin, Ciprofloxacin, reference compound]",MMC/MIC,[8],1
same,MMC,[8],8 µg/mL
same,MIC,[8],8 µg/mL
same,MMC/MIC,[10],1
same,MMC,[10],4 µg/mL
same,MIC,[10],4 µg/mL
same,MMC/MIC,[11],1
same,MMC,[11],0.5 µg/mL
same,MIC,[11],0.5 µg/mL
same,MMC/MIC,[14],1
same,MMC,[14],4 µg/mL
same,MIC,[14],4 µg/mL
same,MMC/MIC,[15],1
same,MMC,[15],0.5 µg/mL
same,MIC,[15],0.5 µg/mL
"O=C1O[C@H]([C@@H](O)CO)C(O)=C1O [Vitamin C, reference compound]",DPPH free radical scavenging activity (EC50),[3],1.81 ± 0.19^h μg/mL
"CC(C)[C@@H](C)C=C[C@@H](C)[C@H]1CC[C@H]2[C@]3(O)C=CC4(O)CC(O)CC[C@]4(C)[C@H]3CC[C@]12C (stereo partly shown) [Compound 3, Ergosta-6,22-diene-3,5,8-triol]",MMC,[6],>256 µg/mL
same,MIC,[6],128 µg/mL
same,MMC,[8],>256 µg/mL
same,MIC,[8],128 µg/mL
same,MMC/MIC,[9],2
same,MMC,[9],128 µg/mL
same,MIC,[9],64 µg/mL
same,MMC,[10],>256 µg/mL
same,MIC,[10],> 256 µg/mL
same,MMC,[11],>256 µg/mL
same,MIC,[11],256 µg/mL
same,MMC,[14],>256 µg/mL
same,MIC,[14],> 256 µg/mL
same,MMC/MIC,[15],2
same,MMC,[15],256 µg/mL
same,MIC,[15],128 µg/mL
"Cc1cc(O)c2c(c1)C(=O)c1cccc(O)c1C2=O [Compound 1, Chrysophanol]",DPPH free radical scavenging activity (EC50),[3],4.52 ± 0.36^d μg/mL
same,Gallic acid equivalent antioxidant capacity (GEAC),[5],104.87 ± 1.43^d μg/mL
same,MMC/MIC,[6],1
same,MMC,[6],64 µg/mL
same,MIC,[6],64 µg/mL
same,MMC/MIC,[8],1
same,MMC,[8],32 µg/mL
same,MIC,[8],32 µg/mL
same,MMC/MIC,[9],1
same,MMC,[9],32 µg/mL
same,MIC,[9],32 µg/mL
same,MMC/MIC,[10],1
same,MMC,[10],64 µg/mL
same,MIC,[10],64 µg/mL
same,MMC/MIC,[11],2
same,MMC,[11],64 µg/mL
same,MIC,[11],32 µg/mL
same,MMC/MIC,[14],2
same,MMC,[14],128 µg/mL
same,MIC,[14],64 µg/mL
same,MMC/MIC,[15],2
same,MMC,[15],128 µg/mL
same,MIC,[15],64 µg/mL
